# Measured values published in patent US10266510B2, “Antimicrobial and cytotoxic compounds and methods for treating cancer, a bacterial infection, and/or a fungal infection” (King Abdulaziz University, priority 2017, dated 2019).
# Columns and labels:
# [1] = test system: MCF7 (human breast cancer cell line); assay: Tumor cell growth assay (sulforhodamine B), MCF7; format: cell-based; conditions: for Remarks (% at 100 ppm): 48 h; for Inhibitory effect on in vitro growth (in words): 48 h exposure; for LC90: death of 90% of cells in 48 hrs
# From the text: (§1) Reagents: Fetal bovine serum (FBS) and L-glutamine were purchased from Gibco Invitrogen Co. (Scotland, UK). RPMI-1640 medium was from Cambrex (New Jersey, USA). Dimethyl sulfoxide (DMSO), doxorubicin, penicillin, streptomycin and sulforhodamine B (SRB) were from Sigma Chemical Co. (Saint Louis, USA).
# (§2) Cell cultures: Three human tumor cell lines, HCT116 (colon cell line), HePG 2 (human hepatocellular carcinoma cell line), and MCF7 (human breast adenocarcinoma) were used. In vitro bioassay on human tumor cell lines were conducted and determined by the Bioassay-Cell Culture Laboratory, National Research Centre, El-Tahrir St., Dokki, Cairo 12622, Egypt. They grew as a monolayer and are routinely maintained in RPMI-1640 medium supplemented with 5% heat-inactivated FBS, 2 mM glutamine and antibiotics (penicillin 100 U/mL, streptomycin 100 μg/mL), at 37° C. in a humidified atmosphere containing 5% CO2. Exponentially growing cells were obtained by plating 1.5×10^5 cells/mL for MCF-7 and HCT116 and 0.75×10^4 cells/mL for HePG2, followed by 24 h of incubation. The effect of the vehicle solvent (DMSO) on the growth of these cell lines was evaluated in all experiments by exposing untreated control cells to the maximum concentration (0.5%) of DMSO used in each assay.
# (§3) Tumor cell growth assay: The effect on the in vitro growth of human tumor cell lines was evaluated according to the procedure adopted by the National Cancer Institute (NCI, USA) in the ‘In vitro Anticancer Drug Discovery Screen’ that uses the protein-binding dye sulforhodamine B to assess cell growth. Briefly, cells growing in 96-well plates were then exposed for 48 h to five serial concentrations of each compound, starting from a maximum concentration of 78 μM (P. Skehan, R. Storeng, D. Scudiero, A. Monks, J. McMahon, D. Vistica, J. T. Warren, H. Bokesch, S. Kenney, M. R. Boyd, J. Natl. Cancer Inst., 82, 1107 (1990), incorporated herein by reference in its entirety). Following this exposure period adherent cells were fixed, washed, and stained. The bound stain was solubilized and the absorbance was measured at 492 nm in a plate reader (Bio-Tek Instruments Inc., Power wave XS, Wincoski, USA). For each test compound and cell line, a dose-response curve was obtained and the growth inhibition of 50% (GI50), corresponding to the concentration of the compounds that inhibited 50% of the net cell growth, was calculated as described elsewhere (A. Monks, D. Scudiero, P. Skehan, R. Shoemaker, K. Paull, D. Vistica, C. Hose, J. Langley, P. Cronise, A. Vaigro-Wolff, M. Gray-Goodrich, H. Campbell, J. Mayo, M. J. Boyd, Natl. Cancer Inst., 83, 757 (1991), incorporated herein by reference in its entirety). Doxorubicin was used as a positive control and tested in the same manner.
# [2] = test system: Aspergillus flavus ATCC 16883; assay: MIC by agar well diffusion method; format: cell-based; conditions: 25° C., 48 h, dilutions 50 to 500 μg/mL; for MIC: Aspergillus flavus, ATCC16883
# From the text: (§4) The common pathogenic and food spoilage microorganisms were selected for their relevance in bakery products and other food: the gram-positive bacteria: Bacillus subtilits NRRL-B-4219, Staphylococcus aureus ATCC 6538, Enterococcus faecalis ATCC 19433; the gram negative bacteria: Escherichia coli ATCC 25922, Pseudomonas aeruginosa ATCC 9027, Proteus sp.; yeasts, such as Candida albicans ATCC 10231; and fungi: Aspergillus niger NRRL 2766 (equivalent to ATCC 16888), and Aspergillus flavus ATCC 16883. The bacteria were slanted on nutrient agar (Merck, Darmstadt, Germany), yeast was slanted and mentioned on Sabaroud's agar medium (Lab M., Bury, Lancashire, UK) and the fungi was slanted and mentioned on the potato Dextrose Agar medium (Lab M Limited, Bury, Lancashire, UK). Mueller-Hinton agar (Lab M., Bury, Lancashire, UK) following the manufacturer's instructions was used for the assay. The in vitro minimum inhibitory concentration (MIC) of the synthesized compounds was determined by the agar well diffusion method. DMSO was used to prepare different concentrations ranging from 50 to 500 μg/mL by serial dilutions. The media were inoculated with 100 μL of each of the 10^6 cfu/mL bacterial and fungal strains, and the assay was applied by an agar well diffusion method. Blank DMSO was used as negative control. The plates were incubated aerobically in an incubator at 37° C. for 24 h for bacterial strains and 25° C. for 48 h for fungal strains. The MIC was taken as the lowest concentration in the series dilution that prevented bacterial growth.
# [3] = test system: Pseudomonas aeruginosa ATCC 9027; assay: MIC by agar well diffusion method; format: cell-based; conditions: 37° C., 24 h, dilutions 50 to 500 μg/mL; for MIC: Pseudomonas aeruginosa, ATCC9027, read-out: MIC, P. aeruginosa
# From the text: as §4
# [4] = test system: Aspergillus niger NRRL 2766; assay: MIC by agar well diffusion method; format: cell-based; conditions: 25° C., 48 h, dilutions 50 to 500 μg/mL; for MIC: Aspergillus niger, NRRL2766
# From the text: as §4
# [5] = test system: Escherichia coli ATCC 25922; assay: MIC by agar well diffusion method; format: cell-based; conditions: 37° C., 24 h, dilutions 50 to 500 μg/mL; for MIC: Escherichia coli, ATCC25922
# From the text: as §4
# Proteus sp. = assay: MIC by agar well diffusion method; format: cell-based; conditions: 37° C., 24 h; dilutions 50 to 500 μg/mL
# From the text: as §4
# [6] = test system: Staphylococcus aureus ATCC 6538; assay: MIC by agar well diffusion method; format: cell-based; conditions: 37° C., 24 h, dilutions 50 to 500 μg/mL; for MIC: Staphylococcus aureus, ATCC6538, read-out: MIC, S. aureus
# From the text: as §4
# [7] = test system: Bacillus subtilits NRRL-B-4219; assay: MIC by agar well diffusion method; format: cell-based; conditions: 37° C., 24 h, dilutions 50 to 500 μg/mL; for MIC: Bacillus, NRRLB4219
# From the text: as §4
# [8] = test system: Candida albicans ATCC 10231; assay: MIC by agar well diffusion method; format: cell-based; conditions: 25° C., 48 h, dilutions 50 to 500 μg/mL; for MIC: Candida albicans, ATCC10231
# From the text: as §4
# [9] = test system: Enterococcus faecalis ATCC 19433; assay: MIC by agar well diffusion method; format: cell-based; conditions: 37° C., 24 h, dilutions 50 to 500 μg/mL; for MIC: Enterococcus faecalis, ATCC19433, read-out: MIC, Ent. faecalis
# From the text: as §4
# [10] = test system: HePG 2 (human hepatocellular cancer cell line); assay: Tumor cell growth assay (sulforhodamine B), HePG 2; format: cell-based; conditions: for Remarks (% at 100 ppm): 48 h; for Inhibitory effect on in vitro growth (in words): 48 h exposure
# From the text: as §1, §2, §3
# [11] = test system: HCT116 (colon cancer cell line); assay: Tumor cell growth assay (sulforhodamine B), HCT116; format: cell-based; conditions: for Remarks (% at 100 ppm): 48 h; for Inhibitory effect on in vitro growth (in words): 48 h exposure; for LC90: death of 90% of cells in 48 hrs
# From the text: as §1, §2, §3
Molecule,Remarks (% at 100 ppm) [1],MIC [2],MIC [3],MIC [4],MIC [5],MIC (Proteus sp.),MIC [6],MIC [7],MIC [8],MIC [9],Remarks (% at 100 ppm) [10],Remarks (% at 100 ppm) [11],Inhibitory effect on in vitro growth (in words) [1],LC90 [1],Inhibitory effect on in vitro growth (in words) [10],Inhibitory effect on in vitro growth (in words) [11],LC90 [11],other results
"CCOC1Oc2ccccc2C(=O)C1=NNc1ccccc1OC (stereo not shown) [Compound 6b, 2-ethoxy-3-(2-(2-methoxyphenyl)hydrazono)chroman-4-one]",22.9% at 100 ppm,350 µg/mL,400 µg/mL,300 µg/mL,250 µg/mL,350 µg/mL,300 µg/mL,200 µg/mL,400 µg/mL,450 µg/mL,56.1% at 100 ppm,39.6% at 100 ppm,–,–,–,–,–,melting point: 158 °C
"CCOC1Oc2ccccc2C(=O)C1=NNc1ccc(Cl)cc1 (stereo not shown) [Compound 6c, 3-[(4-Chlorophenyl)hydrazono]-2-ethoxychroman-4-one]",100% at 100 ppm,200 µg/mL,150 µg/mL,100 µg/mL,50 µg/mL,150 µg/mL,150 µg/mL,75 µg/mL,50 µg/mL,200 µg/mL,94.2% at 100 ppm,100% at 100 ppm,highest inhibitory effect,27.0 µg/mL,highest inhibitory effect,highest inhibitory effect,23.1 µg/mL,"LC50 (concentration killing 50% of cells) ([1]; Homo sapiens, death of 50% of cells in 48 hrs): 15.8 µg/mL; LC50 (concentration killing 50% of cells) ([10]; Homo sapiens, HepG2, death of 50% of cells in 48 hrs): 39 µg/mL; LC90 ([10]; death of 90% of cells in 48 hrs): 68.9 µg/mL; CC50 ([11]; Homo sapiens, HCT-116, death of 50% of cells in 48 hrs, read-out: LC50 (the source's name)): 13.2 µg/mL"
Ethoxy-3-[(4-nitro-phenyl)-hydrazono]-chroman-one [Compound 6a],61.3% at 100 ppm,–,–,–,–,–,–,–,–,–,45.3% at 100 ppm,65.3% at 100 ppm,highest inhibitory effect,124.1 µg/mL,highest inhibitory effect,highest inhibitory effect,123.3 µg/mL,"LC50 ([1]; death of 50% of cells in 48 hrs): 76.3 µg/mL; MIC, A. flavus [2]: 250 µg/mL; MIC, P. aeruginosa [3]: 300 µg/mL; MIC, A. niger [4]: 200 µg/mL; MIC, E. coli [5]: 100 µg/mL; MIC, Proteus sp. (Proteus sp.): 250 µg/mL; MIC, S. aureus [6]: 350 µg/mL; MIC, B. subtilits [7]: 150 µg/mL; MIC, C. albicans [8]: 250 µg/mL; MIC, Ent. faecalis [9]: 250 µg/mL"
